Source: patent publication US10023570B2 (Array BioPharma, Inc., priority 2015, dated 2018)
Counter-ions that a name gives are not always drawn.

The molecules below were run against human KDR protein in HEK-293 cells (Homo sapiens (Human), UniProt P35968) (assay: KDR Cell Assay (phospho-KDR in HEK-293 cells expressing inducible KDR)). Conditions: pKDR Cell HEK 10% FBS IC50, HEK-293 cells expressing inducible KDR, VEGF stimulated.
human KDR protein in HEK-293 cells, sequence (P35968 20-1356): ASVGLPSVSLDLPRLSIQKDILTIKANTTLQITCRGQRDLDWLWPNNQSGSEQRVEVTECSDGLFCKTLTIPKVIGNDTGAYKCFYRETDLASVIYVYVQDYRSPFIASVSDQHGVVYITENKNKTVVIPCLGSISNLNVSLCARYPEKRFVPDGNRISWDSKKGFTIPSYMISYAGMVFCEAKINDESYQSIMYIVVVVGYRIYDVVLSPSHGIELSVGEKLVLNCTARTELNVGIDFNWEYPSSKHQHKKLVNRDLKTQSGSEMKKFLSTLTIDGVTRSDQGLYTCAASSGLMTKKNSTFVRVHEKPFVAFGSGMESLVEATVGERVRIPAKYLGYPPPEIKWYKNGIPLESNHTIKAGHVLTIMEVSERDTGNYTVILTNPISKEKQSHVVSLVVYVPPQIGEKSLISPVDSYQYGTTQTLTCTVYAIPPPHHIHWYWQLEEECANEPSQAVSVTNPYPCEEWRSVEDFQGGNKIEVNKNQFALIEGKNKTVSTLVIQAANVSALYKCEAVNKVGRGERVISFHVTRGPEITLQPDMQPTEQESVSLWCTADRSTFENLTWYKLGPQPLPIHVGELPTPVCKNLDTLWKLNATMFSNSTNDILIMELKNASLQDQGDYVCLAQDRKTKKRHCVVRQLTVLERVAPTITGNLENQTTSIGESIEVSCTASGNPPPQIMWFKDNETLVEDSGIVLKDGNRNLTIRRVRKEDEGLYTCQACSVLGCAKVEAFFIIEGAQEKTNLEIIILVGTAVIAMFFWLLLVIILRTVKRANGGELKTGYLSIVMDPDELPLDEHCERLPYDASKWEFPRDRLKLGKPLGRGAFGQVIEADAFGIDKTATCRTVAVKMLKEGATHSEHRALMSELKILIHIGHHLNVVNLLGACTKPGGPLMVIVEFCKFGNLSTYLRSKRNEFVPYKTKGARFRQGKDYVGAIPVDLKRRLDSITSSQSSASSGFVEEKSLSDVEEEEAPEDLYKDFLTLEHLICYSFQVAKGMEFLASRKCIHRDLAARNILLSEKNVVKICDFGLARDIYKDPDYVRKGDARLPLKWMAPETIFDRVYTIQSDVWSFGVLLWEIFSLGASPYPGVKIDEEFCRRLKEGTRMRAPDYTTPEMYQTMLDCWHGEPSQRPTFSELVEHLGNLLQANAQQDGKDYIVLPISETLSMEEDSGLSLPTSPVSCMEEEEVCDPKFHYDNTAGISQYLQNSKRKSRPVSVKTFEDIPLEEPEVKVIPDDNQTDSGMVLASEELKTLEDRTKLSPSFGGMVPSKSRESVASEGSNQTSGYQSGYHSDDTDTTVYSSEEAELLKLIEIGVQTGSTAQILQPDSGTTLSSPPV
Format: cell-based
Summary of the method: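 HEK-293 cells with inducible human KDR were treated with compound for 1 h in DMEM (0.25% DMSO final), then lysed. Phospho-KDR was quantified by Meso Scale immunoassay, expressed as percent of control, and IC50 taken where a 4-parameter logistic fit crossed 50 POC.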
Work on `CN(C)CC(=O)N1CC2(CCN(c3ccc(-c4cc(-c5cnn(C)c5)cn5ncc(C#N)c45)cn3)CC2)C1` [Example 494, 4-(6-(2-(2-(dimethylamino)acetyl)-2,7-diazaspiro[3.5]nonan-7-yl)pyridin-3-yl)-6-(1-methyl-1H-pyrazol-4-yl)pyrazolo[1,5-a]pyridine-3-carbonitrile] yielded an IC50 of 1830 nM.
With `Cn1cc(-c2cc(-c3ccc(N4CCN(C(=O)N5CCC(C6CC6)C5)CC4)nc3)c3c(C#N)cnn3c2)cn1` (stereo not shown) [Example 388, 4-(6-(4-(3-cyclopropylpyrrolidine-1-carbonyl)piperazin-1-yl)pyridin-3-yl)-6-(1-methyl-1H-pyrazol-4-yl)pyrazolo[1,5-a]pyridine-3-carbonitrile] the IC50 was 346 nM.
`CCCN1CCN(c2ccc(-c3cc(-c4cnn(C)c4)cn4ncc(C#N)c34)cn2)CC1` [Example 408, 6-(1-methyl-1H-pyrazol-4-yl)-4-(6-(4-propylpiperazin-1-yl)pyridin-3-yl)pyrazolo[1,5-a]pyridine-3-carbonitrile] was tested, and the IC50 was 1300 nM.
`Cn1cc(-c2cc(-c3ccc(N4C5CC4CN(Cc4ccccc4)C5)nc3)c3c(C#N)cnn3c2)cn1` [Example 490, 4-(6-(3-benzyl-3,6-diazabicyclo[3.1.1]heptan-6-yl)pyridin-3-yl)-6-(1-methyl-1H-pyrazol-4-yl)pyrazolo[1,5-a]pyridine-3-carbonitrile] gave an IC50 of 619 nM.
For `Cn1cc(-c2cc(-c3ccc(N4CCC5(CC4)CC(NC(=O)OC(C)(C)C)C5)nc3)c3c(C#N)cnn3c2)cn1` [Example 516, tert-butyl (7-(5-(3-cyano-6-(1-methyl-1H-pyrazol-4-yl)pyrazolo[1,5-a]pyridin-4-yl)pyridin-2-yl)-7-azaspiro[3.5]nonan-2-yl)carbamate], the IC50 was 173 nM.
`COc1cccc(CN2CCN(c3ccc(-c4cc(-c5cnn(C)c5)cn5ncc(C#N)c45)cn3)CC2)c1` [Example 450, 4-(6-(4-(3-methoxybenzyl)piperazin-1-yl)pyridin-3-yl)-6-(1-methyl-1H-pyrazol-4-yl)pyrazolo[1,5-a]pyridine-3-carbonitrile] showed an IC50 of 467 nM.
Work on `Cn1cc(-c2cc(-c3ccc(N4CCN(C(=O)[C@@H](CO)c5ccccc5)CC4)nc3)c3c(C#N)cnn3c2)cn1` [Example 373, (R)-4-(6-(4-(3-hydroxy-2-phenylpropanol)piperazin-1-yl)pyridin-3-yl)-6-(1-methyl-1H-pyrazol-4-yl)pyrazolo[1,5-a]pyridine-3-carbonitrile] yielded an IC50 of 1820 nM.
Work on `Cn1cc(-c2cc(-c3ccc(N4CC5(CCOCC5)C4)nc3)c3c(C#N)cnn3c2)cn1` [Example 527, 4-(6-(7-oxa-2-azaspiro[3.5]nonan-2-yl)pyridin-3-yl)-6-(1-methyl-1H-pyrazol-4-yl)pyrazolo[1,5-a]pyridine-3-carbonitrile 2,2,2-trifluoroacetate] yielded an IC50 of 918 nM.
In the case of `Cn1cc(-c2cc(-c3ccc(N4CCC5(CC4)CN(C(=O)C4CCC4)C5)nc3)c3c(C#N)cnn3c2)cn1` [Example 493, 4-(6-(2-(cyclobutanecarbonyl)-2,7-diazaspiro[3.5]nonan-7-yl)pyridin-3-yl)-6-(1-methyl-1H-pyrazol-4-yl)pyrazolo[1,5-a]pyridine-3-carbonitrile], the IC50 is reported as 928 nM.
`Cn1cc(-c2cc(-c3ccc(N4C[C@@H]5C[C@H]4CN5Cc4ccccc4)nc3)c3c(C#N)cnn3c2)cn1` [Example 483, 4-(6-((1S,4S)-5-benzyl-2,5-diazabicyclo[2.2.1]heptan-2-yl)pyridin-3-yl)-6-(1-methyl-1H-pyrazol-4-yl)pyrazolo[1,5-a]pyridine-3-carbonitrile] showed an IC50 of 77.1 nM.
`Cn1cc(-c2cc(-c3ccc(N4CCN(Cc5cccc(F)c5)CC4)nc3)c3c(C#N)cnn3c2)cn1` [Example 428, 4-(6-(4-(3-fluorobenzyl)piperazin-1-yl)pyridin-3-yl)-6-(1-methyl-1H-pyrazol-4-yl)pyrazolo[1,5-a]pyridine-3-carbonitrile] showed an IC50 of 880 nM.
Work on `Cn1cc(-c2cc(-c3ccc(N4CC5CC(C4)N5Cc4ccccc4)nc3)c3c(C#N)cnn3c2)cn1` [Example 489, 4-(6-(6-benzyl-3,6-diazabicyclo[3.1.1]heptan-3-yl)pyridin-3-yl)-6-(1-methyl-1H-pyrazol-4-yl)pyrazolo[1,5-a]pyridine-3-carbonitrile] yielded an IC50 of 19.5 nM.

Same assay, conditions: pKDR Cell HEK 10% FBS IC50, HEK-293 cells expressing inducible KDR, VEGF stimulated, 10% FBS
For `Cn1cc(-c2cc(-c3ccc(C4CCN(C(=O)CC(C)(C)C)CC4)cc3)c3c(C#N)cnn3c2)cn1` [Example 302, 4-(4-(1-(3,3-dimethylbutanoyl)piperidin-4-yl)phenyl)-6-(1-methyl-1H-pyrazol-4-yl)pyrazolo[1,5-a]pyridine-3-carbonitrile], the IC50 was 2990 nM.
`Cn1cc(-c2cc(-c3ccc(N4CCN(C(=O)C[C@H](NC(=O)OC(C)(C)C)c5ccccc5)CC4)nc3)c3c(C#N)cnn3c2)cn1` [Example 17, (S)-tert-butyl (3-(4-(5-(3-cyano-6-(1-methyl-1H-pyrazol-4-yl)pyrazolo[1,5-a]pyridin-4-yl)pyridin-2-yl)piperazin-1-yl)-3-oxo-1-phenylpropyl)carbamate] was tested, and the IC50 was 83.4 nM.
Molecule `Cn1cc(-c2cc(-c3ccc(N4CCN(C(=O)N5CCCCC5)CC4)nc3)c3c(C#N)cnn3c2)cn1` [Example 93, 6-(1-methyl-1H-pyrazol-4-yl)-4-(6-(4-(piperidine-1-carbonyl)piperazin-1-yl)pyridin-3-yl)pyrazolo[1,5-a]pyridine-3-carbonitrile] has an IC50 of 1700 nM.
With `CC(=O)N1CC2(CCN(c3ccc(-c4cc(-c5cnn(C)c5)cn5ncc(C#N)c45)cn3)CC2)C1` [Example 220, 4-(6-(2-acetyl-2,7-diazaspiro[3.5]nonan-7-yl)pyridin-3-yl)-6-(1-methyl-1H-pyrazol-4-yl)pyrazolo[1,5-a]pyridine-3-carbonitrile] the IC50 was 617 nM.
`Cn1cc(-c2cc(-c3ccc(N4CCN(C(=O)Cc5ccccn5)CC4)nc3)c3c(C#N)cnn3c2)cn1` [Example 5, 6-(1-methyl-1H-pyrazol-4-yl)-4-(6-(4-(2-(pyridin-2-yl)acetyl)piperazin-1-yl)pyridin-3-yl)pyrazolo[1,5-a]pyridine-3-carbonitrile] gave an IC50 of 243 nM.
`Cn1cc(-c2cc(-c3ccc(N4CCN(S(=O)(=O)CC(C)(C)C)CC4)nc3)c3c(C#N)cnn3c2)cn1` [Example 89] was tested, and the IC50 was 189 nM.
Molecule `CO[C@H]1C[C@H]2CC[C@@H](C1)N2c1ccc(-c2cc(-c3cnn(C)c3)cn3ncc(C#N)c23)cn1` [Example 200, 4-(6-((1R,3r,5S)-3-methoxy-8-azabicyclo[3.2.1]octan-8-yl)pyridin-3-yl)-6-(1-methyl-1H-pyrazol-4-yl)pyrazolo[1,5-a]pyridine-3-carbonitrile] has an IC50 of 463 nM.
Work on `Cn1cc(-c2cc(-c3ccc(N4CCNC5(CC5)C4)nc3)c3c(C#N)cnn3c2)cn1` [Example 167, 4-(6-(4,7-diazaspiro[2.5]octan-7-yl)pyridin-3-yl)-6-(1-methyl-1H-pyrazol-4-yl)pyrazolo[1,5-a]pyridine-3-carbonitrile dihydrochloride] yielded an IC50 of 780 nM.
`Cn1cc(-c2cc(-c3ccc(N4CCN(C(=O)N5CCC[C@H]5C(F)(F)F)CC4)nc3)c3c(C#N)cnn3c2)cn1` [Example 113, (S)-6-(1-methyl-1H-pyrazol-4-yl)-4-(6-(4-(2-(trifluoromethyl)pyrrolidine-1-carbonyl)piperazin-1-yl)pyridin-3-yl)pyrazolo[1,5-a]pyridine-3-carbonitrile] showed an IC50 of 654 nM.
For `COCC1(C(=O)N2CCN(c3ccc(-c4cc(-c5cnn(C)c5)cn5ncc(C#N)c45)cn3)CC2)CCC1` [Example 354, 4-(6-(4-(1-(methoxymethyl)cyclobutanecarbonyl)piperazin-1-yl)pyridin-3-yl)-6-(1-methyl-1H-pyrazol-4-yl)pyrazolo[1,5-a]pyridine-3-carbonitrile], the IC50 was 1290 nM.
`CC(C)NC(=O)[C@@H]1CN(c2ccc(-c3cc(-c4cnn(C)c4)cn4ncc(C#N)c34)cn2)CCO1` [Example 228, (S)-4-(5-(3-cyano-6-(1-methyl-1H-pyrazol-4-yl)pyrazolo[1,5-a]pyridin-4-yl)pyridin-2-yl)-N-isopropylmorpholine-2-carboxamide] gave an IC50 of 4530 nM.
Work on `Cn1cc(-c2cc(-c3ccc(N4CCN([C@@H]5CCCC[C@H]5O)CC4)nc3)c3c(C#N)cnn3c2)cn1` [Example 155, 4-(6-(4-((1r,2r)-2-hydroxycyclohexyl)piperazin-1-yl)pyridin-3-yl)-6-(1-methyl-1H-pyrazol-4-yl)pyrazolo[1,5-a]pyridine-3-carbonitrile] yielded an IC50 of 979 nM.
`CC(C)O[C@@H]1CCN(C(=O)N2CCN(c3ccc(-c4cc(-c5cnn(C)c5)cn5ncc(C#N)c45)cn3)CC2)C1` [Example 107, (R)-4-(6-(4-(3-isopropoxypyrrolidine-1-carbonyl)piperazin-1-yl)pyridin-3-yl)-6-(1-methyl-1H-pyrazol-4-yl)pyrazolo[1,5-a]pyridine-3-carbonitrile] gave an IC50 of 893 nM.
Work on `CO[C@H]1C[C@H](NC(=O)C2CCN(c3ccc(-c4cc(-c5cnn(C)c5)cn5ncc(C#N)c45)cn3)CC2)C1` [Example 240, 1-(5-(3-cyano-6-(1-methyl-1H-pyrazol-4-yl)pyrazolo[1,5-a]pyridin-4-yl)pyridin-2-yl)-N-((1r,3r)-3-methoxycyclobutyl) piperidine-4-carboxamide] yielded an IC50 of 897 nM.
Molecule `Cn1cc(-c2cc(-c3ccc(N4CCC5(CC4)CN(C(=O)c4ccccc4)C5)nc3)c3c(C#N)cnn3c2)cn1` [Example 217, 4-(6-(2-benzoyl-2,7-diazaspiro[3.5]nonan-7-yl)pyridin-3-yl)-6-(1-methyl-1H-pyrazol-4-yl)pyrazolo[1,5-a]pyridine-3-carbonitrile] has an IC50 of 1670 nM.
`Cn1cc(-c2cc(-c3ccc(N4CCN(C(=O)Cc5ccc(C#N)cc5)CC4)nc3)c3c(C#N)cnn3c2)cn1` [Example 365, 4-(6-(4-(2-(4-cyanophenyl)acetyl)piperazin-1-yl)pyridin-3-yl)-6-(1-methyl-1H-pyrazol-4-yl)pyrazolo[1,5-a]pyridine-3-carbonitrile 2,2,2-trifluoroacetate] gave an IC50 of 597 nM.
